Data on three compounds can be found in the SangsterLogP compilation.

What is called logD is lipophilicity at a set pH, counting ionised and neutral species.

A short description of the data set: method code SF-AS, from DOI: 10.1002/jps.2600830428, PMID: 8046619. The following applies: pH 7.4.
On to `O=c1nc(N=CN2CCCC2)ccn1[C@@H]1O[C@H](CO)[C@@H](O)[C@@H]1O`, for which the logD is -1.15. Compound `O=c1nc(N=CN2CCOCC2)ccn1[C@@H]1O[C@H](CO)[C@@H](O)[C@@H]1O` came in with a logD of -1.66. `O=c1nc(/N=C/N2CCOCC2)ccn1[C@H]1C[C@H](O)[C@@H](CO)O1`: the logD is -1.54.
